In ChEMBL document CHEMBL1201862, “PubChem BioAssay data set” (2004):
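Step 1: Grow cells in 96-well plates. Step 2: Expose to compound for 48 hours at 5 concentrations. Step 3: Interpolate endpoints linearly; if unreached, use highest concentration. The concentration for 50% growth inhibition is given as GI50.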 Calls of active or inactive are those of the source. Rule as the data show it: active = GI50 up to about 1.1 µM and inactive = higher.

What was measured:
Assay in all cases: growth of human tumour cells (NCI), 48 h
A498 = test system: A498
ACHN = test system: ACHN
CAKI-1 = test system: CAKI-1
COLO 205 = test system: COLO 205
HCC 2998 = test system: HCC 2998
HCT-116 = test system: HCT-116
HOP-62 = test system: HOP-62
HT-29 = test system: HT-29
IGROV-1 = test system: IGROV-1
M14 = test system: M14
OVCAR-3 = test system: OVCAR-3
RPMI-8226 = test system: RPMI-8226
SF-539 = test system: SF-539
SN12C = test system: SN12C
SR = test system: SR
UACC-257 = test system: UACC-257
CCRF-CEM = test system: CCRF-CEM
HOP-92 = test system: HOP-92

Measured: GI50

N#CCCN(c1ccc(/C=C2\N=C(c3ccc(Cl)cc3)OC2=O)cc1)S(=O)(=O)c1ccccc1
inactive: A498 > 100 µM | ACHN > 100 µM | CAKI-1 > 100 µM | COLO 205 > 100 µM | HCC 2998 > 100 µM | HCT-116 > 100 µM | HOP-62 > 100 µM | HT-29 > 100 µM | IGROV-1 > 100 µM | M14 > 100 µM | OVCAR-3 > 100 µM | RPMI-8226 > 100 µM | SF-539 > 100 µM | SN12C > 100 µM | SR > 100 µM | UACC-257 > 100 µM

c1ccc2c(c1)Cc1c(Cc3csc4ccccc34)ccc3cccc-2c13
inactive: ACHN > 100 µM | CCRF-CEM > 100 µM | COLO 205 > 100 µM | HCC 2998 > 100 µM | HCT-116 > 100 µM | HOP-62 > 100 µM | HOP-92 > 100 µM | HT-29 > 100 µM | IGROV-1 > 100 µM | M14 > 100 µM | OVCAR-3 > 100 µM | RPMI-8226 > 100 µM | SF-539 > 100 µM | SN12C > 100 µM | UACC-257 > 100 µM

CN(C)CCn1c2c3ccccc3ccc2c2oc(=O)c3ccccc3c21
inactive: ACHN 5.24 µM | CAKI-1 6.37 µM | CCRF-CEM 4.26 µM | COLO 205 4.17 µM | HCT-116 4.2 µM | HOP-62 13.2 µM | HOP-92 5.58 µM | HT-29 4.86 µM | IGROV-1 12.1 µM | M14 6.12 µM | OVCAR-3 4.4 µM | RPMI-8226 4.35 µM | SF-539 2.5 µM | SR 2.78 µM | UACC-257 4.83 µM

Cn1c(=O)oc2cc(C3CCC(=O)N3Cc3csc(-c4ccccc4)n3)ccc21 (stereo not drawn)
inactive: ACHN > 100 µM | CAKI-1 > 100 µM | CCRF-CEM > 100 µM | COLO 205 77.3 µM | HCC 2998 > 100 µM | HCT-116 > 100 µM | HOP-62 > 100 µM | HT-29 79.1 µM | IGROV-1 > 100 µM | M14 > 100 µM | RPMI-8226 > 100 µM | SF-539 > 100 µM | SN12C > 100 µM | SR 63.7 µM | UACC-257 > 100 µM

Cc1c(C2Cc3ccccc3N2)c2ccccc2n1C (stereo not drawn)
inactive: A498 > 100 µM | ACHN > 100 µM | CAKI-1 > 100 µM | CCRF-CEM > 100 µM | COLO 205 > 100 µM | HCC 2998 > 100 µM | HCT-116 > 100 µM | HOP-62 > 100 µM | HT-29 > 100 µM | IGROV-1 > 100 µM | M14 > 100 µM | OVCAR-3 > 100 µM | SF-539 > 100 µM | SN12C > 100 µM | SR > 100 µM | UACC-257 > 100 µM

CCc1cccc(C)c1NC(=O)CCc1n[nH]c(=S)o1
inactive: A498 > 100 µM | ACHN > 100 µM | CAKI-1 > 100 µM | CCRF-CEM > 100 µM | COLO 205 44.6 µM | HCC 2998 > 100 µM | HCT-116 16.1 µM | HOP-62 > 100 µM | HOP-92 > 100 µM | HT-29 95.5 µM | IGROV-1 > 100 µM | M14 > 100 µM | OVCAR-3 > 100 µM | RPMI-8226 21.6 µM | SF-539 > 100 µM | SN12C > 100 µM | UACC-257 > 100 µM

O=[N+]([O-])C(=C1c2ccccc2-c2ccccc21)[N+](=O)[O-]
inactive: A498 57.3 µM | ACHN 62.8 µM | CAKI-1 > 100 µM | CCRF-CEM 47.6 µM | COLO 205 > 100 µM | HCC 2998 70.5 µM | HCT-116 38 µM | HOP-62 > 100 µM | HT-29 50.6 µM | IGROV-1 61.5 µM | M14 > 100 µM | OVCAR-3 > 100 µM | RPMI-8226 44 µM | SF-539 > 100 µM | SN12C > 100 µM | SR > 100 µM | UACC-257 52.8 µM

O=C1CCC(=O)N2CCCCN12
inactive: A498 > 100 µM | ACHN > 100 µM | CAKI-1 > 100 µM | CCRF-CEM > 100 µM | COLO 205 > 100 µM | HCC 2998 > 100 µM | HCT-116 > 100 µM | HOP-62 > 100 µM | HOP-92 > 100 µM | HT-29 > 100 µM | IGROV-1 > 100 µM | M14 > 100 µM | OVCAR-3 > 100 µM | SF-539 > 100 µM | SN12C > 100 µM | UACC-257 > 100 µM

CN(CCCN1C(=O)c2cccc3cc([N+](=O)[O-])cc(c23)C1=O)CCN(C)CCCN1C(=O)c2cccc3cc([N+](=O)[O-])cc(c23)C1=O
inactive: A498 > 39.3 µM | ACHN 17.9 µM | CAKI-1 31.9 µM | CCRF-CEM 6.34 µM | COLO 205 23.4 µM | HCC 2998 21.2 µM | HCT-116 11.7 µM | HOP-62 31.8 µM | HT-29 7.67 µM | IGROV-1 16 µM | M14 > 39.3 µM | OVCAR-3 > 39.3 µM | RPMI-8226 2.23 µM | SF-539 29.7 µM | SN12C > 39.3 µM | UACC-257 > 39.3 µM

Cc1cccc(C(C)(C)C)c1NC(=O)CCc1n[nH]c(=S)o1
inactive: A498 > 100 µM | ACHN > 100 µM | CAKI-1 > 100 µM | CCRF-CEM > 100 µM | COLO 205 16.6 µM | HCC 2998 > 100 µM | HCT-116 17.6 µM | HOP-62 > 100 µM | HOP-92 > 100 µM | HT-29 > 100 µM | IGROV-1 > 100 µM | M14 > 100 µM | OVCAR-3 > 100 µM | RPMI-8226 22.8 µM | SF-539 > 100 µM | SN12C > 100 µM | UACC-257 > 100 µM

O=C(Cc1nc2ccccc2s1)C(=O)Nc1ccc(Cl)cc1
inactive: A498 > 100 µM | ACHN > 100 µM | CAKI-1 > 100 µM | COLO 205 > 100 µM | HCC 2998 > 100 µM | HCT-116 > 100 µM | HOP-62 > 100 µM | HOP-92 > 100 µM | HT-29 > 100 µM | IGROV-1 > 100 µM | M14 > 100 µM | OVCAR-3 > 100 µM | RPMI-8226 > 100 µM | SF-539 > 100 µM | SN12C > 100 µM | UACC-257 > 100 µM

CC1C=C(OC(=O)c2ccccc2)C(=O)C(n2cc(F)c(=O)[nH]c2=O)O1 (stereo not drawn)
inactive: A498 > 100 µM | ACHN 59.7 µM | CAKI-1 62.1 µM | CCRF-CEM 45.1 µM | COLO 205 50.9 µM | HCC 2998 5.56 µM | HCT-116 38.5 µM | HOP-62 27.8 µM | HOP-92 > 100 µM | HT-29 18.9 µM | IGROV-1 > 100 µM | M14 51.3 µM | OVCAR-3 > 100 µM | RPMI-8226 23.9 µM | SF-539 13.9 µM | SN12C > 100 µM | UACC-257 > 100 µM

CCCc1n[nH]c(CCC(=O)N(Cc2ccccc2)Cc2ccccc2)c1CC
inactive: A498 > 100 µM | ACHN > 100 µM | CAKI-1 > 100 µM | CCRF-CEM > 100 µM | COLO 205 > 100 µM | HCC 2998 > 100 µM | HOP-62 > 100 µM | HT-29 > 100 µM | IGROV-1 > 100 µM | M14 > 100 µM | OVCAR-3 > 100 µM | RPMI-8226 > 100 µM | SF-539 > 100 µM | SN12C > 100 µM | UACC-257 > 100 µM

CCOC(=O)C12CCCC1(O)N(NC(=O)OC(C)(C)C)C(C)=C2C(=O)OC (stereo not drawn)
inactive: A498 > 100 µM | ACHN > 100 µM | CAKI-1 > 100 µM | CCRF-CEM > 100 µM | COLO 205 > 100 µM | HCC 2998 > 100 µM | HCT-116 > 100 µM | HOP-62 > 100 µM | HOP-92 > 100 µM | HT-29 > 100 µM | IGROV-1 > 100 µM | M14 > 100 µM | OVCAR-3 > 100 µM | RPMI-8226 > 100 µM | SF-539 > 100 µM | SN12C > 100 µM | UACC-257 > 100 µM

NC(N)NCCCc1cn2c(n1)C1CCCN1C(=O)C2Cc1ccccc1 (stereo not drawn)
inactive: A498 > 100 µM | ACHN > 100 µM | CAKI-1 > 100 µM | CCRF-CEM > 100 µM | COLO 205 > 100 µM | HCC 2998 > 100 µM | HCT-116 > 100 µM | HOP-62 > 100 µM | HT-29 > 100 µM | IGROV-1 > 100 µM | M14 > 100 µM | OVCAR-3 > 100 µM | RPMI-8226 > 100 µM | SF-539 > 100 µM | SN12C > 100 µM | UACC-257 > 100 µM

NC(CCCCNCc1ccccc1O)C(=O)O (stereo not drawn)
inactive: A498 > 100 µM | ACHN > 100 µM | CAKI-1 > 100 µM | CCRF-CEM > 100 µM | COLO 205 > 100 µM | HCC 2998 > 100 µM | HCT-116 > 100 µM | HOP-62 > 100 µM | HOP-92 > 100 µM | HT-29 > 100 µM | IGROV-1 > 100 µM | M14 > 100 µM | OVCAR-3 > 100 µM | RPMI-8226 > 100 µM | SF-539 > 100 µM | SN12C > 100 µM | UACC-257 > 100 µM

COc1ccc(/C=C/c2cc(OC)c(OC(C)=O)c(OC)c2)cc1
inactive: ACHN 33 µM | CCRF-CEM 30.8 µM | COLO 205 68.1 µM | HCC 2998 20.7 µM | HCT-116 30.8 µM | HOP-62 25.9 µM | HOP-92 28.1 µM | HT-29 26.5 µM | IGROV-1 36.8 µM | M14 34.6 µM | OVCAR-3 41.2 µM | RPMI-8226 31.8 µM | SF-539 > 10 µM | SN12C 24.3 µM | UACC-257 20.7 µM
